From ChEMBL document CHEMBL1687706, “Inhibition of human immunodeficiency virus type 1 replication in human cells by Debio-025, a novel cyclophilin binding agent” (Antimicrob Agents Chemother, 2008)
pIC50: −log10 of the molar value. Calls of active or inactive are those of the source. No cut-off for these calls is given here.

Experiments:
Human alphaherpesvirus 3 = assay: Antiviral activity against VZV OKA infected in human embryonic lung cells assessed as inhibition of; format: functional, organism-based; settings: Human alphaherpesvirus 3, OKA
[1] = tested on: Human immunodeficiency virus 1; assay: Antiviral activity against HIV1 subtype B SF162 infected in human PBMC assessed as inhibition of viral replication by ELISA; format: functional; settings: Human immunodeficiency virus 1, SF162 ISOLATE
[2] = tested on: Human immunodeficiency virus 1; assay: microbe, parasite or virus in culture; settings: Human immunodeficiency virus 1, 3B, MT4
SARS-CoV = assay: Antiviral activity against SARS coronavirus infected in african green monkey Vero cells assessed as inhibition of viral replication; format: functional, organism-based; settings: Severe acute respiratory syndrome-related coronavirus
[3] = tested on: Human respiratory syncytial virus; assay: Antiviral activity against RSV infected in human HeLa cells assessed as inhibition of viral replication
[4] = Cytotoxicity against human embryonic lung cells; format: cell-based; settings: read-out: TC50 (the source's name)
Influenza B virus = assay: Antiviral activity against influenza B virus infected in MDCK cells assessed as inhibition of viral replication; format: functional, organism-based
[5] = tested on: Human immunodeficiency virus 1; assay: Antiviral activity against HIV-1 NL4-3 infected in human TZB cells assessed as inhibition of viral entry at 0.5 to 2.5 uM after 2 hrs by RT-PCR; format: functional, organism-based
Influenza A virus [6] = assay: Antiviral activity against Influenza A virus H3N2 infected in MDCK cells assessed as inhibition of viral replication; format: functional, organism-based
Human respirovirus 3 = assay: Antiviral activity against Parainfluenza 3 infected in african green monkey Vero cells assessed as inhibition of viral replication; format: functional, organism-based; settings: Human respirovirus 3, Vero
[7] = tested on: Human immunodeficiency virus 2; assay: Antiviral activity against HIV-2 isolate CDC310319 infected in human PBMC assessed as inhibition of viral replication; format: functional, organism-based; settings: Human immunodeficiency virus 2, isolate CDC310319
[8] = Cytotoxicity against human Huh 5.2 cells; format: cell-based, Huh-5-2; settings: read-out: TC50 (the source's name)
[9] = tested on: Human immunodeficiency virus 1; assay: Antiviral activity against HIV1 subtype B TEKI infected in human PBMC assessed as inhibition of viral replication by ELISA; format: functional, organism-based; settings: Human immunodeficiency virus 1, subtype B TEKI
[10] = tested on: Human immunodeficiency virus 1; assay: Antiviral activity against ABC, ddC, ddI, TDF, AZT, d4T-resistant HIV-1 G910-6 infected in human PBMC assessed as inhibition of viral replication by ELISA; format: functional, organism-based; settings: Human immunodeficiency virus 1, G910-6
[11] = tested on: Human immunodeficiency virus 1; assay: Antiviral activity against HIV1 subtype EA CMU02 infected in human PBMC assessed as inhibition of viral replication by ELISA; format: functional, organism-based; settings: Human immunodeficiency virus 1, subtype EA CMU02
[12] = tested on: Human papillomavirus type 16; assay: Antiviral activity against HPV-16 infected in Caski cells assessed as inhibition of viral replication after 7 days; format: functional, Human papillomavirus 16
[13] = tested on: Human immunodeficiency virus 1; assay: Antiviral activity against HIV1 subtype B NL4-3 infected in human PBMC assessed as inhibition of viral replication by ELISA; format: functional, organism-based; settings: Human immunodeficiency virus 1, subtype B NL4-3
[14] = tested on: Human papillomavirus type 16; assay: Antiviral activity against HPV-16 infected in Caski cells assessed as inhibition of viral replication after 3 days; format: functional, organism-based, Human papillomavirus 16
Human alphaherpesvirus 2 [15] = assay: Antiviral activity against Herpes simplex virus 2 196 infected in human embryonic lung cells assessed as inhibition of viral replication; format: functional, organism-based; settings: Human alphaherpesvirus 2, 196, lung
[16] = tested on: Human immunodeficiency virus 1; assay: Antiviral activity against LPV, APV, ATV, IDV, NFV, RTV, SQV-resistant HIV-1 52-52 infected in human PBMC assessed as inhibition of viral replication by ELISA; format: functional, organism-based; settings: Human immunodeficiency virus 1, 52-52
Rattus norvegicus [17] = assay: Immunosuppressive activity in Sprague-Dawley rat […] model assessed as percent T lymphocytes at 50 mg/kg, po administered once daily for 28 days by flow cytometry; format: functional
[18] = Antiviral activity against HPV-18 infected in human HeLa cells assessed as inhibition of viral replication after 7 days; format: functional; settings: human papillomavirus 18, HeLa, 168 h; read-out: TC50 (the source's name)
[19] = Cytotoxicity against african green monkey Vero cells; format: cell-based; settings: chlorocebus sabaeus, read-out: TC50 (the source's name)
Yellow fever virus = assay: Antiviral activity against Yellow fever virus 17D infected in african green monkey Vero cells assessed as inhibition of viral replication; format: functional, cell-based
Rattus norvegicus [20] = assay: Immunosuppressive activity in Sprague-Dawley rat KHL model assessed as percent T-helper cells at 50 mg/kg, po administered once daily for 28 days by flow cytometry; format: functional
Human betaherpesvirus 5 = assay: Antiviral activity against Human cytomegalovirus Davis infected in human embryonic lung cells assessed as reduction in viral yield; format: functional, organism-based; settings: Human betaherpesvirus 5, Davis
Human alphaherpesvirus 2 [21] = assay: Antiviral activity against Herpes simplex virus 2 Lyons infected in human embryonic lung cells assessed as inhibition of viral replication; format: functional, organism-based; settings: Human alphaherpesvirus 2, Lyons
Hepatitis B virus = assay: Antiviral activity against HBV infected in human hepAD38 cells assessed as inhibition of viral replication; format: functional, organism-based
[22] = tested on: Human immunodeficiency virus 1; assay: Antiviral activity against HIV1 subtype C 92BR025 infected in human PBMC assessed as inhibition of viral replication by ELISA; format: functional, organism-based; settings: Human immunodeficiency virus 1, subtype C 92BR025
cells = settings: Mus musculus, PBMC
Vaccinia virus = assay: Antiviral activity against Vaccinia virus infected in human embryonic lung cells assessed as reduction in viral yield measured after 3 days; format: functional, organism-based; settings: Orthopoxvirus vaccinia, 72 h
Feline coronavirus = assay: Antiviral activity against Feline coronavirus infected in CRFK assessed as inhibition of viral replication; format: functional, organism-based; settings: Alphacoronavirus 1, CRFK
Rattus norvegicus [23] = assay: Immunosuppressive activity in Sprague-Dawley rat KHL model assessed as percent cytotoxic T cells at 50 mg/kg, po administered once daily for 28 days by flow cytometry; format: functional, T-cell
Rattus norvegicus [24] = assay: Immunosuppressive activity in Sprague-Dawley rat […] model assessed as percent T-helper cells at 25 mg/kg, po administered once daily for 28 days by flow cytometry; format: functional
[25] = tested on: Bovine viral diarrhea virus 1; assay: Antiviral activity against BVDV infected in […] cells assessed as inhibition of viral replication; format: functional, organism-based; settings: Bovine viral diarrhea virus isolates and strains
[26] = tested on: Human immunodeficiency virus 1; assay: Antiviral activity against HIV1 subtype B Ba-L infected in human PBMC assessed as inhibition of viral replication by ELISA; format: functional, organism-based; settings: Human immunodeficiency virus 1, subtype B Ba-L
Influenza A virus [27] = assay: Antiviral activity against Influenza A virus H1N1 infected in MDCK cells assessed as inhibition of viral replication; format: functional, organism-based
[28] = tested on: Vesicular stomatitis virus; assay: Antiviral activity against VSV infected in human embryonic lung cells assessed as inhibition of viral replication; format: functional, organism-based
Coxsackievirus = assay: Antiviral activity against Coxsackie B3 infected in african green monkey Vero cells assessed as inhibition of viral replication; format: functional, organism-based
[29] = tested on: Human immunodeficiency virus 1; assay: Antiviral activity against LPV, APV, ATV, IDV, NFV, RTV, SQV, AZT, ddI, 3TC, d4T-resistant HIV-1 MDR3761 infected in human PBMC assessed as inhibition of viral replication by ELISA; format: functional, organism-based; settings: Human immunodeficiency virus 1, MDR3761
[30] = tested on: Human immunodeficiency virus 2; assay: Antiviral activity against HIV-2 isolate CDC310342 infected in human PBMC assessed as inhibition of viral replication; format: functional, organism-based; settings: Human immunodeficiency virus 2, isolate CDC310342
[31] = Cytotoxicity against MDCK cells; format: cell-based, Canis lupus familiaris; settings: dog, read-out: TC50 (the source's name)

Q: With `C/C=C/C[C@@H](C)[C@@H](O)[C@H]1C(=O)N[C@@H](CC)C(=O)N(C)[C@H](C)C(=O)N(CC)[C@@H](C(C)C)C(=O)N[C@@H](C(C)C)C(=O)N(C)[C@@H](CC(C)C)C(=O)N[C@@H](C)C(=O)N[C@H](C)C(=O)N(C)[C@@H](CC(C)C)C(=O)N(C)[C@@H](CC(C)C)C(=O)N(C)[C@@H](C(C)C)C(=O)N1C` [ALISPORIVIR] as the molecule, how does the pIC50 (Human alphaherpesvirus 3) read?
A: 5.60

Q: What about the pIC50 [1] of the same molecule?
A: 7.82

Q: And the pIC50 [2]?
A: 7.00

Q: And the pIC50 (SARS-CoV)?
A: 5.11

Q: What about the pIC50 [3] of the same molecule?
A: < 5.09

Q: And the CC50 [4]?
A: 25 µM

Q: And the pIC50 (Influenza B virus)?
A: < 5.00

Q: And the inhibition [5]?
A: inactive

Q: What about the pIC50 (Influenza A virus [6]) of the same molecule?
A: < 5.00

Q: What about the pIC50 (Human respirovirus 3) of the same molecule?
A: < 4.60

Q: What about the pIC50 [7] of the same molecule?
A: 4.98

Q: What about the CC50 [8] of the same molecule?
A: 22 µM

Q: And the pIC50 [9]?
A: 5.36

Q: And the pIC50 [10]?
A: 7.54

Q: What about the pIC50 [11] of the same molecule?
A: 5.25

Q: What about the TC50 [12] of the same molecule?
A: 0.6 µM

Q: What about the pIC50 [13] of the same molecule?
A: 8.00

Q: And the TC50 [14]?
A: 1.2 µM

Q: And the pIC50 (Human alphaherpesvirus 2 [15])?
A: < 4.60

Q: And the pIC50 [16]?
A: 5.51

Q: And the Activity (Rattus norvegicus [17])?
A: 50%

Q: What about the CC50 [18] of the same molecule?
A: 3.3 µM

Q: And the CC50 [19]?
A: 16.6 µM

Q: And the pIC50 (Yellow fever virus)?
A: < 4.78

Q: What about the Activity (Rattus norvegicus [20]) of the same molecule?
A: 32.8%

Q: What about the pIC50 (Human betaherpesvirus 5) of the same molecule?
A: 5.21

Q: What about the pIC50 (Human alphaherpesvirus 2 [21]) of the same molecule?
A: < 4.60

Q: And the pIC50 (Hepatitis B virus)?
A: 5.39

Q: And the pIC50 [22]?
A: 7.82

Q: And the pIC50 (cells)?
A: 6.09

Q: And the pIC50 (Vaccinia virus)?
A: < 4.60

Q: And the pIC50 (Feline coronavirus)?
A: 5.66

Q: And the Activity (Rattus norvegicus [23])?
A: 16.1%

Q: And the Activity (Rattus norvegicus [24])?
A: 34.5%

Q: What about the pIC50 [25] of the same molecule?
A: < 4.60

Q: And the pIC50 [26]?
A: 5.45

Q: What about the pIC50 (Influenza A virus [27]) of the same molecule?
A: < 5.00

Q: And the pIC50 [28]?
A: < 4.60

Q: And the pIC50 (Coxsackievirus)?
A: < 4.60

Q: And the pIC50 [29]?
A: 6.80

Q: What about the pIC50 [30] of the same molecule?
A: 7.24

Q: What about the CC50 [31] of the same molecule?
A: 9.9 µM
